Key:
HeLa [1] = assay: AnnexinV/7-AAD staining; format: cell-based, human; conditions: 10 µM, 24 h treatment
Procedure: (§1) Adherent cells (1 - 2*10^5) are 24 h prior to compound treatment seeded into 24 well tissue culture plates. Suspension cells are pipetted into P-tubes immediately before treatment. Test compounds are added leading to a final concentrations of 10 µM. After 24 h treatment cells are harvested (in case of adherent cells by trypsinization) and transferred to FACS tubes (BD Biosciences). After centrifugation and removal of the supernatant, 100 µl complete medium containing AnnexinV-GST (10 µg) is added, mixed and incubated at 4°C for 30 minutes. Subsequently, the cells are washed once with medium and incubated with 100 µl anti-GST Alexa 488 (Molecular Probes A-11131) in medium diluted 1:500 for 30 minutes at 4°C. Then, cells are washed once and stained with 1 µg/ml 7-aminoactinomycin D (7-AAD) (Molecular Probes A-1310) in 250 µl medium and analyzed on the FACSCalibur™. AnnexinV is measured in FL1 whereas 7-AAD is measured in FL3. In Table 5 the percentage of positively stained cells after treatment with the respective compounds are indicated. The following scores are used: Score 0 relates to less than 10%, score 1 relates to more than 10% but less than 50% and score 2 relates to more than 50% positivity.

Ramos [2] = assay: AnnexinV/7-AAD staining; format: cell-based, human; conditions: 10 µM, 24 h treatment
Procedure: as §1

Jurkat [3] = assay: AnnexinV/7-AAD staining; format: cell-based, human; conditions: 10 µM, 24 h treatment
Procedure: as §1

HeLa [4] = assay: Hoechst 33342 nuclear staining (Table 3); format: cell-based, human; design: key: 0 relating to no activity; 1 relating to weak activity comprising less than 50% of the cells; score 2 relating to strong activity comprising more than 50% of the cells
Procedure: (§2) This assay is performed in 96 well tissue culture plates. Appropriate number of cells (adherent cells: 3 - 5*10^3, suspension cells: 8 - 10*10^3) are being seeded out in 80 µl complete medium. Adherent cells are incubated for 24 h for proper spreading out before addition of test compounds while suspension cells are immediately treated with test compounds after seeding out. The test compounds are added in 20 µl complete medium containing max 5% DMSO. The final compound concentrations in the assays are 10 µM, 3 µM,1 µM and 0.3 µM, respectively. After 24 h or 48 h incubation at culture conditions, 10 µl medium containing Hoechst 33342 dye (Sigma B-2261) at 2-5 µg/ml are added to each well. The assay plates are then further incubated for 30 minutes and subsequently analyzed with a standard inverted fluorescence microscope. The readout allows the determination of the fraction of apoptotic nuclei as well as other morphological criteria specific for apoptosis as a function of the treatment. The following scores are used: 0 relating to no activity, 1 relating to weak activity comprising less than 50% of the cells and score 2 relating to strong activity comprising more than 50% of the cells.

K562 = assay: Hoechst 33342 nuclear staining (Table 3); format: cell-based, human; design: key: 0 relating to no activity; 1 relating to weak activity comprising less than 50% of the cells; score 2 relating to strong activity comprising more than 50% of the cells
Procedure: as §2

KB = assay: Hoechst 33342 nuclear staining (Table 3); format: cell-based, human; design: key: 0 relating to no activity; 1 relating to weak activity comprising less than 50% of the cells; score 2 relating to strong activity comprising more than 50% of the cells
Procedure: as §2

Jurkat [5] = assay: Hoechst 33342 nuclear staining (Table 3); format: cell-based, human; design: key: 0 relating to no activity; 1 relating to weak activity comprising less than 50% of the cells; score 2 relating to strong activity comprising more than 50% of the cells
Procedure: as §2

A20 [6] = assay: AnnexinV/7-AAD staining; format: cell-based, mouse; conditions: A20, 10 µM, 24 h treatment
Procedure: as §1

Ramos [7] = assay: Hoechst 33342 nuclear staining (Table 3); format: cell-based, human; design: key: 0 relating to no activity; 1 relating to weak activity comprising less than 50% of the cells; score 2 relating to strong activity comprising more than 50% of the cells; conditions: 24h
Procedure: as §2

A20 [8] = assay: Hoechst 33342 nuclear staining (Table 3); format: cell-based, mouse; design: key: 0 relating to no activity; 1 relating to weak activity comprising less than 50% of the cells; score 2 relating to strong activity comprising more than 50% of the cells
Procedure: as §2

| Structure (SMILES) | percentage of positively stained cells (AnnexinV/7-AAD staining) (HeLa [1]) | percentage of positively stained cells (AnnexinV/7-AAD staining) (Ramos [2]) | percentage of positively stained cells (AnnexinV/7-AAD staining) (Jurkat [3]) | Hoechst 33342 nuclear staining (HeLa [4]; 24h, conc 0.3 (µM)) | Hoechst 33342 nuclear staining (HeLa [4]; 24h, conc 1 (µM)) | Hoechst 33342 nuclear staining (HeLa [4]; 24h, conc 3 (µM)) | Hoechst 33342 nuclear staining (HeLa [4]; 24h, conc 10 (µM)) | Hoechst 33342 nuclear staining (HeLa [4]; 48h, conc 0.3 (µM)) | Hoechst 33342 nuclear staining (HeLa [4]; 48h, conc 1 (µM)) | Hoechst 33342 nuclear staining (HeLa [4]; 48h, conc 3 (µM)) | Hoechst 33342 nuclear staining (HeLa [4]; 48h, conc 10 (µM)) | Hoechst 33342 nuclear staining (K562; K562, 24h, conc 0.3 (µM)) | Hoechst 33342 nuclear staining (K562; K562, 24h, conc 1 (µM)) | Hoechst 33342 nuclear staining (K562; K562, 24h, conc 3 (µM)) | Hoechst 33342 nuclear staining (K562; K562, 48h, conc 0.3 (µM)) | Hoechst 33342 nuclear staining (K562; K562, 48h, conc 1 (µM)) | Hoechst 33342 nuclear staining (K562; K562, 48h, conc 3 (µM)) | Hoechst 33342 nuclear staining (K562; K562, 48h, conc 10 (µM)) | Hoechst 33342 nuclear staining (Jurkat [5]; 24h, conc 0.3 (µM)) | Hoechst 33342 nuclear staining (Jurkat [5]; 24h, conc 1 (µM)) | further results |
| --- | --- | --- | --- | --- | --- | --- | --- | --- | --- | --- | --- | --- | --- | --- | --- | --- | --- | --- | --- | --- | --- |
| CC1(C)Cc2ccccc2-c2cc3nc4ccccc4nc3n21 [No. 1, 6,6-Dimethyl-5,6-dihydro-6a,7,12-triaza-dibenzo[a,h]fluorene] | 1 (score 1 relates to more than 10% but less than 50%) | 1 (score 1 relates to more than 10% but less than 50%) | 0 (Score 0 relates to less than 10%) | 0 | 0 | 0 | 0 | 0 | 2 (score 2 relating to strong activity comprising more than 50% of the cells) | 2 (score 2 relating to strong activity comprising more than 50% of the cells) | 2 (score 2 relating to strong activity comprising more than 50% of the cells) | 0 | 0 | 0 | 0 | 1 (1 relating to weak activity comprising less than 50% of the cells) | 2 (score 2 relating to strong activity comprising more than 50% of the cells) | 2 (score 2 relating to strong activity comprising more than 50% of the cells) | 1 (1 relating to weak activity comprising less than 50% of the cells) | 1 (1 relating to weak activity comprising less than 50% of the cells) | Hoechst 33342 nuclear staining (KB; 24h, conc 0.3 (µM)): 0; Hoechst 33342 nuclear staining (KB; 24h, conc 1 (µM)): 0; Hoechst 33342 nuclear staining (KB; 24h, conc 3 (µM)): 0; Hoechst 33342 nuclear staining (KB; 24h, conc 10 (µM)): 0; Hoechst 33342 nuclear staining (KB; 48h, conc 0.3 (µM)): 0; Hoechst 33342 nuclear staining (KB; 48h, conc 1 (µM)): 0; Hoechst 33342 nuclear staining (KB; 48h, conc 3 (µM)): 0; Hoechst 33342 nuclear staining (KB; 48h, conc 10 (µM)): 0; Hoechst 33342 nuclear staining (Jurkat [5]; 24h, conc 3 (µM)): 2 (score 2 relating to strong activity comprising more than 50% of the cells); Hoechst 33342 nuclear staining (Jurkat [5]; 24h, conc 10 (µM)): 2 (score 2 relating to strong activity comprising more than 50% of the cells); Hoechst 33342 nuclear staining (Jurkat [5]; 48h, conc 0.3 (µM)): 2 (score 2 relating to strong activity comprising more than 50% of the cells); Hoechst 33342 nuclear staining (Jurkat [5]; 48h, conc 1 (µM)): 2 (score 2 relating to strong activity comprising more than 50% of the cells); Hoechst 33342 nuclear staining (Jurkat [5]; 48h, conc 3 (µM)): 2 (score 2 relating to strong activity comprising more than 50% of the cells); Hoechst 33342 nuclear staining (Jurkat [5]; 48h, conc 10 (µM)): 2 (score 2 relating to strong activity comprising more than 50% of the cells); percentage of positively stained cells (AnnexinV/7-AAD staining) (A20 [6]): 0 (Score 0 relates to less than 10%) |
| CC1(C)Cc2ccccc2-c2c(C=O)c3nc4ccccc4nc3n21 [No. 3, 6,6-Dimethyl-5,6-dihydro-6a,7,12-triaza-dibenzo[a,h]fluorene-13-carbaldehyde] | 1 (score 1 relates to more than 10% but less than 50%) | 2 (score 2 relates to more than 50% positivity) | 2 (score 2 relates to more than 50% positivity) | 0 | 0 | 0 | 0 | 0 | 0 | 0 | 1 (1 relating to weak activity comprising less than 50% of the cells) | 0 | 0 | 0 | 0 | 0 | 1 (1 relating to weak activity comprising less than 50% of the cells) | 1 (1 relating to weak activity comprising less than 50% of the cells) | 0 | 0 | Hoechst 33342 nuclear staining (K562; K562, 24h, conc 10 (µM)): 0; Hoechst 33342 nuclear staining (Ramos [7]; conc 0.3 (µM)): 0; Hoechst 33342 nuclear staining (Ramos [7]; conc 1 (µM)): 0; Hoechst 33342 nuclear staining (Ramos [7]; conc 3 (µM)): 0; Hoechst 33342 nuclear staining (Ramos [7]; conc 10 (µM)): 0; Hoechst 33342 nuclear staining (Jurkat [5]; 24h, conc 3 (µM)): 0; Hoechst 33342 nuclear staining (Jurkat [5]; 24h, conc 10 (µM)): 0; Hoechst 33342 nuclear staining (Jurkat [5]; 48h, conc 0.3 (µM)): 0; Hoechst 33342 nuclear staining (Jurkat [5]; 48h, conc 1 (µM)): 0; Hoechst 33342 nuclear staining (Jurkat [5]; 48h, conc 3 (µM)): 0; Hoechst 33342 nuclear staining (Jurkat [5]; 48h, conc 10 (µM)): 2 (score 2 relating to strong activity comprising more than 50% of the cells); Hoechst 33342 nuclear staining (A20 [8]; A20, 24h, conc 0.3 (µM)): 0; Hoechst 33342 nuclear staining (A20 [8]; A20, 24h, conc 1 (µM)): 0; Hoechst 33342 nuclear staining (A20 [8]; A20, 24h, conc 3 (µM)): 0; Hoechst 33342 nuclear staining (A20 [8]; A20, 24h, conc 10 (µM)): 0; Hoechst 33342 nuclear staining (A20 [8]; A20, 48h, conc 0.3 (µM)): 0; Hoechst 33342 nuclear staining (A20 [8]; A20, 48h, conc 1 (µM)): 0; Hoechst 33342 nuclear staining (A20 [8]; A20, 48h, conc 3 (µM)): 0; Hoechst 33342 nuclear staining (A20 [8]; A20, 48h, conc 10 (µM)): 0; percentage of positively stained cells (AnnexinV/7-AAD staining) (A20 [6]): 1 (score 1 relates to more than 10% but less than 50%) |

— EP1433789A1, “Pyrrolopyrazines and their use as selective apoptosis inducers” (Aponetics AG, priority 2002, dated 2004)
